This is an account of results in ChEMBL document CHEMBL1149746, “Synthesis of ellagic acid O-alkyl derivatives and isolation of ellagic acid as a tetrahexanoyl derivative from Fragaria ananassa” (J Nat Prod, 1992).

In the experiment the test system is Mus musculus. The experiment can be described thus: Anticarcinogenic activity in A/J mouse assessed as inhibition of Benzo(a)pyrene-induced tumorigenesis at 0.4 g/kg in diet for 21 days by mouse lung tumor inhibition study. The experiment is classed as functional, organism-based.

Activity calls are given as the source filed them. No cut-off for these calls is given here.

In the case of `CC(=O)OC[C@H]1O[C@@H](Oc2c(OC(C)=O)cc3c(=O)oc4c(O[C@@H]5O[C@H](COC(C)=O)[C@@H](OC(C)=O)[C@H](OC(C)=O)[C@H]5OC(C)=O)c(OC(C)=O)cc5c(=O)oc2c3c45)[C@H](OC(C)=O)[C@@H](OC(C)=O)[C@@H]1OC(C)=O`, the result was Active. Consider `CCCCCCCCOc1c(OC(=O)CCCCC)cc2c(=O)oc3c(OCCCCCCCC)c(OC(=O)CCCCC)cc4c(=O)oc1c2c34`, for which the result was Active. Take `O=c1oc2c(O)c(O)cc3c(=O)oc4c(O)c(O)cc1c4c23`: the result was Active.
